Where two headings read alike, the source gives them in different places.
Columns and labels:
[1] = biological target: altC-SQR (altC) of D024 SDHC1 KO mitochondria (Zymoseptoria tritici, UniProt A0A1X7RQW2+F9X9V6+O42772); experiment: Succinate-quinone (SQR) SDHI sensitivity assay on purified mitochondria, 06STD024 SDHC1 KO; type: biochemical; settings: for RF (resistance factor), D024 SDHC1 KO (altC): IC50 ratio compared to IPO323 values
Procedure, shortened: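 Succinate:ubiquinone/DCPIP reductase inhibition measured on purified mitochondria from Zymoseptoria tritici strains carrying either a single C-subunit gene (ZtSDHC1, ZtSDHC1_A84I or ZtSDHC3) or both ZtSDHC1 and ZtSDHC3; pTet::SDHC3 transformant tested under repressed and induced conditions.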

[2] = test system: Zymoseptoria tritici progeny isolates; type: cell-based; settings: for phenotype flag S (sensitive): 1 = sensitive; for Phenotype sensitive (S) flag: fluopyram 10 mg.L^-1 agar, 1 in S column; for phenotype flag, sensitive (S): growth on fluopyram 10 mg.L^-1 agar; for phenotype flag, sensitive (S) / Phenotyping Growth Fluopyram 10ppm Sensitive: 1 = scored sensitive; for Phenotype scored sensitive (S): agar growth on fluopyram 10 mg.L^-1, 1 = scored in this class

altC-SQR (altC) of D024 SDHC1 KO mitochondria, sequence (A0A1X7RQW2 36-181): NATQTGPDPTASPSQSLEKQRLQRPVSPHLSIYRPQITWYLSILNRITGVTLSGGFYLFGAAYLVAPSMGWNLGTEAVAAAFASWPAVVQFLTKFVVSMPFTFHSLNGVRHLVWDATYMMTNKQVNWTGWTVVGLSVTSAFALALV
altC-SQR (altC) of D024 SDHC1 KO mitochondria, sequence (O42772 20-297): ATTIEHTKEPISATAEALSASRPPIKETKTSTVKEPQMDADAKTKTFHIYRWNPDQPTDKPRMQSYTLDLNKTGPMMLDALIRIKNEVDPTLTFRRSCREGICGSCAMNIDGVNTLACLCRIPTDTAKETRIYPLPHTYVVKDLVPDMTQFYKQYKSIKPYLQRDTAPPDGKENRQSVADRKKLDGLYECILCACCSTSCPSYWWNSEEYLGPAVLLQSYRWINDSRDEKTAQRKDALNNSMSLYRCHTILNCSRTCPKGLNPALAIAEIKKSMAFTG
altC-SQR (altC) of D024 SDHC1 KO mitochondria, sequence (F9X9V6 1-193): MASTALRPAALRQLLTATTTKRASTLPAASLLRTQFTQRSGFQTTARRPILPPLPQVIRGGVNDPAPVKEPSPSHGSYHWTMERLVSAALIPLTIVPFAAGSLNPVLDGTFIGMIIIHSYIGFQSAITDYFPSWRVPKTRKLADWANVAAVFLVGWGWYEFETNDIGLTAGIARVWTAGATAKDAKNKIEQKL
altC-SQR (altC) of D024 SDHC1 KO mitochondria, sequence (F9WWR1 41-643 partner): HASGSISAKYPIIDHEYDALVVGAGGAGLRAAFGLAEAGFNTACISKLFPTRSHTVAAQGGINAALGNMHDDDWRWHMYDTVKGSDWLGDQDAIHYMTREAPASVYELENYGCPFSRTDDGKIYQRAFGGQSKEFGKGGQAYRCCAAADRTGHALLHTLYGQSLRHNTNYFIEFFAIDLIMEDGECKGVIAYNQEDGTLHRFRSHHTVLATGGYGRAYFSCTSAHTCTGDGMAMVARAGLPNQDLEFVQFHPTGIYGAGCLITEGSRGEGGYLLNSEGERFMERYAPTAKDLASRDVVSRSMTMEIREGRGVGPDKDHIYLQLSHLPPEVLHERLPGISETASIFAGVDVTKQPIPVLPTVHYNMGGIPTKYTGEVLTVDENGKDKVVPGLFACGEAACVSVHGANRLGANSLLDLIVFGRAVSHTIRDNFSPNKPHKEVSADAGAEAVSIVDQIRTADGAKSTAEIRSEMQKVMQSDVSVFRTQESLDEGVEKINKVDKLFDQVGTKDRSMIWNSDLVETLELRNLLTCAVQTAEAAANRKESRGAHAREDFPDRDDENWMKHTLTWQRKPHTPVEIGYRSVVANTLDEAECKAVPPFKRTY

O=C(NCCc1ncc(C(F)(F)F)cc1Cl)c1ccccc1C(F)(F)F [Fluopyram]
~100: RF (resistance factor), D024 SDHC1 KO (altC) ([1]; listed as fluopyram)
1: phenotype flag S (sensitive) ([2]; progeny isolate 25, cross IPO323XD024) | phenotype flag S (sensitive) ([2]; progeny isolate 27, cross IPO323XD024) | phenotype flag S (sensitive) ([2]; progeny isolate 28, cross IPO323XD024) | phenotype flag S (sensitive) ([2]; progeny isolate 31, cross IPO323XD024) | phenotype flag S (sensitive) ([2]; progeny isolate 32, cross IPO323XD024) | phenotype flag S (sensitive) ([2]; progeny isolate 34, cross IPO323XD024) | phenotype flag S (sensitive) ([2]; progeny isolate 37, cross IPO323XD024) | phenotype flag S (sensitive) ([2]; progeny isolate 39, cross IPO323XD024) | phenotype flag S (sensitive) ([2]; progeny isolate 40, cross IPO323XD024) | phenotype flag S (sensitive) ([2]; progeny isolate 43, cross IPO323XD024) | phenotype flag S (sensitive) ([2]; progeny isolate 46, cross IPO323XD024) | phenotype flag S (sensitive) ([2]; progeny isolate 49, cross IPO323XD024) | phenotype flag S (sensitive) ([2]; progeny isolate 50, cross IPO323XD024) | phenotype flag S (sensitive) ([2]; progeny isolate 51, cross IPO323XD024) | phenotype flag S (sensitive) ([2]; progeny isolate 53, cross IPO323XD024) | phenotype flag S (sensitive) ([2]; progeny isolate 54, cross IPO323XD024) | phenotype flag S (sensitive) ([2]; progeny isolate 55, cross IPO323XD024) | phenotype flag S (sensitive) ([2]; progeny isolate 56, cross IPO323XD024) | phenotype flag S (sensitive) ([2]; progeny isolate 57, cross IPO323XD024) | phenotype flag S (sensitive) ([2]; progeny isolate 59, cross IPO323XD024) | phenotype flag S (sensitive) ([2]; progeny isolate 60, cross IPO323XD024) | phenotype flag S (sensitive) ([2]; progeny isolate 62, cross IPO323XD024) | phenotype flag S (sensitive) ([2]; progeny isolate 63, cross IPO323XD024) | phenotype flag S (sensitive) ([2]; progeny isolate 65, cross IPO323XD024) | phenotype scored sensitive (S), flag 1 ([2]; progeny isolate 67, cross IPO323XD024, fluopyram 10 mg.L^-1 agar) | phenotype scored sensitive (S), flag 1 ([2]; progeny isolate 71, cross IPO323XD024, fluopyram 10 mg.L^-1 agar) | phenotype scored sensitive (S), flag 1 ([2]; progeny isolate 72, cross IPO323XD024, fluopyram 10 mg.L^-1 agar) | phenotype scored sensitive (S), flag 1 ([2]; progeny isolate 75, cross IPO323XD024, fluopyram 10 mg.L^-1 agar) | phenotype scored sensitive (S), flag 1 ([2]; progeny isolate 77, cross IPO323XD024, fluopyram 10 mg.L^-1 agar) | phenotype scored sensitive (S), flag 1 ([2]; progeny isolate 78, cross IPO323XD024, fluopyram 10 mg.L^-1 agar) | phenotype scored sensitive (S), flag 1 ([2]; progeny isolate 82, cross IPO323XD024, fluopyram 10 mg.L^-1 agar) | phenotype scored sensitive (S), flag 1 ([2]; progeny isolate 83, cross IPO323XD024, fluopyram 10 mg.L^-1 agar) | phenotype scored sensitive (S), flag 1 ([2]; progeny isolate 84, cross IPO323XD024, fluopyram 10 mg.L^-1 agar) | phenotype scored sensitive (S), flag 1 ([2]; progeny isolate 88, cross IPO323XD024, fluopyram 10 mg.L^-1 agar) | phenotype scored sensitive (S), flag 1 ([2]; progeny isolate 89, cross IPO323XD024, fluopyram 10 mg.L^-1 agar) | phenotype scored sensitive (S), flag 1 ([2]; progeny isolate 90, cross IPO323XD024, fluopyram 10 mg.L^-1 agar) | phenotype scored sensitive (S), flag 1 ([2]; progeny isolate 91, cross IPO323XD024, fluopyram 10 mg.L^-1 agar) | phenotype scored sensitive (S), flag 1 ([2]; progeny isolate 92, cross IPO323XD024, fluopyram 10 mg.L^-1 agar) | phenotype scored sensitive (S), flag 1 ([2]; progeny isolate 102, cross IPO323XD024, fluopyram 10 mg.L^-1 agar) | phenotype scored sensitive (S), flag 1 ([2]; progeny isolate 103, cross IPO323XD024, fluopyram 10 mg.L^-1 agar) | phenotype scored sensitive (S), flag 1 ([2]; progeny isolate 106, cross IPO323XD024, fluopyram 10 mg.L^-1 agar) | phenotype scored sensitive (S), flag 1 ([2]; progeny isolate 107, cross IPO323XD024, fluopyram 10 mg.L^-1 agar) | Phenotype sensitive (S) flag ([2]; progeny isolate 150 of cross IPO323XD024) | Phenotype sensitive (S) flag ([2]; progeny isolate 151 of cross IPO323XD024) | Phenotype sensitive (S) flag ([2]; progeny isolate 152 of cross IPO323XD024) | Phenotype sensitive (S) flag ([2]; progeny isolate 153 of cross IPO323XD024) | Phenotype sensitive (S) flag ([2]; progeny isolate 155 of cross IPO323XD024) | Phenotype sensitive (S) flag ([2]; progeny isolate 156 of cross IPO323XD024) | Phenotype sensitive (S) flag ([2]; progeny isolate 158 of cross IPO323XD024) | Phenotype sensitive (S) flag ([2]; progeny isolate 161 of cross IPO323XD024) | Phenotype sensitive (S) flag ([2]; progeny isolate 162 of cross IPO323XD024) | Phenotype sensitive (S) flag ([2]; progeny isolate 163 of cross IPO323XD024) | Phenotype sensitive (S) flag ([2]; progeny isolate 166 of cross IPO323XD024) | Phenotype sensitive (S) flag ([2]; progeny isolate 168 of cross IPO323XD024) | Phenotype sensitive (S) flag ([2]; progeny isolate 169 of cross IPO323XD024) | Phenotype sensitive (S) flag ([2]; progeny isolate 173 of cross IPO323XD024) | Phenotype sensitive (S) flag ([2]; progeny isolate 174 of cross IPO323XD024) | Phenotype sensitive (S) flag ([2]; progeny isolate 175 of cross IPO323XD024) | Phenotype sensitive (S) flag ([2]; progeny isolate 176 of cross IPO323XD024) | Phenotype sensitive (S) flag ([2]; progeny isolate 177 of cross IPO323XD024) | Phenotype sensitive (S) flag ([2]; progeny isolate 182 of cross IPO323XD024) | Phenotype sensitive (S) flag ([2]; progeny isolate 184 of cross IPO323XD024) | Phenotype sensitive (S) flag ([2]; progeny isolate 185 of cross IPO323XD024) | phenotype flag, sensitive (S) ([2]; progeny isolate 192, cross IPO323XD024) | phenotype flag, sensitive (S) ([2]; progeny isolate 193, cross IPO323XD024) | phenotype flag, sensitive (S) ([2]; progeny isolate 195, cross IPO323XD024) | phenotype flag, sensitive (S) ([2]; progeny isolate 197, cross IPO323XD024) | phenotype flag, sensitive (S) ([2]; progeny isolate 201, cross IPO323XD024) | phenotype flag, sensitive (S) ([2]; progeny isolate 207, cross IPO323XD024) | phenotype flag, sensitive (S) ([2]; progeny isolate 209, cross IPO323XD024) | phenotype flag, sensitive (S) ([2]; progeny isolate 210, cross IPO323XD024) | phenotype flag, sensitive (S) ([2]; progeny isolate 211, cross IPO323XD024) | phenotype flag, sensitive (S) ([2]; progeny isolate 215, cross IPO323XD024) | phenotype flag, sensitive (S) ([2]; progeny isolate 217, cross IPO323XD024) | phenotype flag, sensitive (S) ([2]; progeny isolate 218, cross IPO323XD024) | phenotype flag, sensitive (S) ([2]; progeny isolate 220, cross IPO323XD024) | phenotype flag, sensitive (S) ([2]; progeny isolate 221, cross IPO323XD024) | phenotype flag, sensitive (S) ([2]; progeny isolate 223, cross IPO323XD024) | phenotype flag, sensitive (S) ([2]; progeny isolate 224, cross IPO323XD024) | phenotype flag, sensitive (S) ([2]; progeny isolate 225, cross IPO323XD024) | phenotype flag, sensitive (S) ([2]; progeny isolate 227, cross IPO323XD024) | phenotype flag, sensitive (S) ([2]; progeny isolate 228, cross IPO323XD024) | phenotype flag, sensitive (S) ([2]; progeny isolate 229, cross IPO323XD024) | Phenotype scored sensitive (S) ([2]; progeny isolate 230 of cross IPO323 x D024) | Phenotype scored sensitive (S) ([2]; progeny isolate 235 of cross IPO323 x D024) | Phenotype scored sensitive (S) ([2]; progeny isolate 237 of cross IPO323 x D024) | Phenotype scored sensitive (S) ([2]; progeny isolate 238 of cross IPO323 x D024) | Phenotype scored sensitive (S) ([2]; progeny isolate 239 of cross IPO323 x D024) | Phenotyping Growth Fluopyram 10ppm Sensitive ([2]; progeny strain 3, cross IPO323XD024) | Phenotyping Growth Fluopyram 10ppm Sensitive ([2]; progeny strain 10, cross IPO323XD024) | Phenotyping Growth Fluopyram 10ppm Sensitive ([2]; progeny strain 13, cross IPO323XD024) | Phenotyping Growth Fluopyram 10ppm Sensitive ([2]; progeny strain 14, cross IPO323XD024) | Phenotyping Growth Fluopyram 10ppm Sensitive ([2]; progeny strain 16, cross IPO323XD024) | Phenotyping Growth Fluopyram 10ppm Sensitive ([2]; progeny strain 17, cross IPO323XD024) | Phenotyping Growth Fluopyram 10ppm Sensitive ([2]; progeny strain 18, cross IPO323XD024) | Phenotyping Growth Fluopyram 10ppm Sensitive ([2]; progeny strain 19, cross IPO323XD024) | Phenotyping Growth Fluopyram 10ppm Sensitive ([2]; progeny strain 20, cross IPO323XD024) | Phenotyping Growth Fluopyram 10ppm Sensitive ([2]; progeny strain 21, cross IPO323XD024) | Phenotyping Growth Fluopyram 10ppm Sensitive ([2]; progeny strain 23, cross IPO323XD024) | Phenotyping Growth Fluopyram 10ppm Sensitive ([2]; strain IPO323 (parent), cross IPO323XD024, 0 = not)
0: Phenotyping Growth Fluopyram 10ppm Sensitive ([2]; strain D024 (parent), cross IPO323XD024, 0 = not)
93.4: RF (resistance factor), D024 SDHC1 KO (altC) [1]
1.16 ± 0.201 µM: IC50 ([1]; mitochondria of 06STD024 ZtSDHC1 deletion mutant (pure altC-SQR), mean of three ± SD)

Source: article PMC6941823, “A dispensable paralog of succinate dehydrogenase subunit C mediates standing resistance towards a subclass of SDHI fungicides in Zymoseptoria tritici” (PLoS Pathogens, 2019)
